{"source": "patent US7947726B2", "about": "“Non-steroidal ligands for the glucocorticoid receptor, and compositions thereof” (The Regents of the University of California, priority 2002, dated 2011)", "target": "T1, PR (Homo sapiens, UniProt P06401)", "T1 sequence (P06401 1-933)": "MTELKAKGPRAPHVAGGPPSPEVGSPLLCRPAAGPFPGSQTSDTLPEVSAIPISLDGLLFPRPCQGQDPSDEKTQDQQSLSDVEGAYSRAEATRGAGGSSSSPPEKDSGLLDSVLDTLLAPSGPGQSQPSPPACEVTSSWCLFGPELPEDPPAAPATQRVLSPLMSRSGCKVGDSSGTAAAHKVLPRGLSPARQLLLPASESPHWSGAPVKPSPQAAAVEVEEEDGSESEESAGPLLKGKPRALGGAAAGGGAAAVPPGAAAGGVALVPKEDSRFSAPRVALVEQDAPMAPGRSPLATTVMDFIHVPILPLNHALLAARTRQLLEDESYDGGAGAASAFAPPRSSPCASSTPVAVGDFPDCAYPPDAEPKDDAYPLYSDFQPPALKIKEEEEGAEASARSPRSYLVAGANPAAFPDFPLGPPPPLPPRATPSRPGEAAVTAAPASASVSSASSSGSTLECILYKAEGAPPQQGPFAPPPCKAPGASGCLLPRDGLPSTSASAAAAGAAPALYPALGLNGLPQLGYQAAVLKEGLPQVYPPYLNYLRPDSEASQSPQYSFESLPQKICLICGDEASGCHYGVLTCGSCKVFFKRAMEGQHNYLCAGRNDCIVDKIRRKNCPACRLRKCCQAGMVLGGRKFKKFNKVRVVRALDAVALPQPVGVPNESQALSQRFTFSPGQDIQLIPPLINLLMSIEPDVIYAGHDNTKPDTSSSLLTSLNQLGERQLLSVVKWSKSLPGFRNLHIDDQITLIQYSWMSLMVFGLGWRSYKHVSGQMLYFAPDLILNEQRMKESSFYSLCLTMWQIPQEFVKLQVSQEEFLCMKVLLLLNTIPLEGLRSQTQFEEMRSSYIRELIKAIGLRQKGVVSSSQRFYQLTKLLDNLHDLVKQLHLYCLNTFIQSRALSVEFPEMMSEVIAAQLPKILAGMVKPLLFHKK", "experiment": "PR activation (max fold activation)", "assay_type": "cell-based", "details": "Table 4"}
{"smiles": "CC(=O)[C@H]1CC[C@H]2[C@@H]3CCC4=CC(=O)CC[C@]4(C)[C@H]3CC[C@]12C", "note": "[Progesterone, reference compound]", "values": [{"measurement": "PR max fold activation", "result": "255 ± 72"}]}
